Reference: patent US4021553A, “5,6-Diaryl-1,2,4-triazines as topically-active anti-inflammatory agents” (Eli Lilly and Company, priority 1976, dated 1977)

System: erythemic response (ultraviolet-induced erythema)
Test: UV-induced erythemic response inhibition in guinea pigs, topical (modification of the method of Winder)
Assay type: in vivo, Albino guinea pigs
Conditions: dose 100 mcg./12 cm.^2, in ethanol, weighted scores 1.0-2.5 hours
Procedure: A modification of the method of Winder was used to measure the anti-inflammatory activities of the compounds employed in the method of the present invention; see C. V. Winder, et al., Arch. Int. Pharmacodyn., 116, 261 (1958). Albino guinea pigs of either sex, weighing 225-300 grams, were shaved on the back and chemically depilated (Nair® Lotion Hair Remover, Carter Products, N.Y., N.Y.) 18-20 hours before exposure to ultraviolet light. The animals, in groups of four and bearing identifying ear tags, were treated by applying to an area of skin of about 12 cm.^2 a solution of test compound dissolved in 0.1 cc. of ethanol. The control treatment consisted of administering only the drug vehicle, ethanol, to a group of four animals. Groups of four animals each were given different treatment levels of test compound to obtain dose responses. Random order and blind administration of the test compounds were employed; drug idenfication was not made until after all animals were graded. Immediately prior to drug application, the animals were exposed in groups of four to a high-intensity ultraviolet light for a measured period of time (usually 4-7 seconds). The ultraviolet light source, a Hanovia Lamp (Kroymayer-Model 10), was placed in contact with the skin of the animal's back. A gummed notebook paper reinforcement was affixed to the lamp lens to provide an unexposed area of contrast for grading the erythema. Beginning one hour after exposure and thereafter at half-hour intervals for another 1 1/2 hours, the degree of resulting erythema was graded by an arbiturary scoring system based upon the degree of contrast and redness formed. […]
Total scores from each treatment group of four guinea pigs were prepared to the control treatment, and the percent inhibition was calculated as follows: [formula]
A dose-response graph was obtained by plotting dose versus percent inhibition, the points representing the average of each treatment group of four guinea pigs. […] The plotted or calculated ED50 for the particular compound tested, where available, is given in the last column of Table I.

Row | SMILES | % Inhibition compared with control (erythemic response)
1 | COc1ccc(-c2nnc(SCc3ccccc3)nc2-c2ccc(OC)cc2)cc1 [CH2 C6 H5 S 1 OCH3 OCH3, 3-benzylthio-5,6-bis(4-methoxyphenyl)-1,2,4-triazine] | 49%
2 | COc1ccc(-c2nnc(SC(C)C)nc2-c2ccc(OC)cc2)cc1 [CH(CH3)2 S 1 OCH3 OCH3, 3-isopropylthio-5,6-bis(4-methoxyphenyl)-1,2,4-triazine] | 35%
3 | COc1ccc(-c2ncnnc2-c2ccc(OC)cc2)cc1 [H -- -- OCH3 OCH3, 5,6-bis(4-methoxyphenyl)-1,2,4-triazine] | 53%
